pEC50: −log10 of the molar value.
What was measured:
[1] = system: recombinant human CFTR carrying the premature stop codon (PTC) mutation G542X; assay: CFTR-PTC mutant translation readthrough, Nanoluc tagged CFTR luminescence (G542X cell line); assay type: cell-based; conditions: in combination with G418, G542X cell line; for CFTR G542X ACTIVITY Fold 10 μM G-418: fold over 10 μM G-418; for pEC50: 16HBE cells
Summary of the method: (§1)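 16HBE cells stably expressing Nanoluc-tagged human CFTR with G542X or R1162X, in medium with 3 μM VX-809, treated 48 h at 37 °C with compound (10-point, 2-fold, top 50 μM final) alone or with 10 μM G418. Live-cell Nanoluc luminescence normalised to a maximally effective G418 (125-250 μM).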

[2] = system: recombinant human CFTR carrying the premature stop codon (PTC) mutation R1162X; assay: CFTR-PTC mutant translation readthrough, Nanoluc tagged CFTR luminescence (R1162X cell line); assay type: cell-based; conditions: for CFTR R1162X ACTIVITY Fold 10 μM G-418: fold over 10 μM G-418, in combination with G418; for pEC50: in combination with G418, 16HBE cells, read-out: CFTR R1162X ACTIVITY EC50
Summary of the method: as §1

SMILES | CFTR G542X ACTIVITY Fold 10 μM G-418 [1] | pEC50 [1] | CFTR R1162X ACTIVITY Fold 10 μM G-418 [2] | pEC50 [2]
O=C(O)C1CCN(c2ncc(OCc3c(Cl)cccc3C(F)(F)F)cn2)C1 (stereo not drawn) | A′ (A′ = ≥10X) | 5.00 to 6.00 | B′ (B′ = ≥5X to <10X) | 5.00 to 6.00
O=C(O)c1ncn(-c2ncc(OCc3c(Cl)cccc3C(F)(F)F)cn2)n1 |  | < 5.00 |  | < 5.00
FC(F)(F)c1cccc(Cl)c1COc1cnc(N2CCC3(CCCNC3)C2)nc1 (stereo not drawn) | A′ (A′ = ≥10X) | < 5.00 | A′ (A′ = ≥10X) | 5.00 to 6.00
O=C1OC(CO)CN1c1ncc(CCc2c(Cl)cccc2Cl)cn1 (stereo not drawn) |  | < 5.00 |  | < 5.00
O=C1CNC(=O)N1c1ccc(OCc2c(Cl)cccc2C(F)(F)F)cn1 | B′ (B′ = ≥5X to <10X) | 5.00 to 6.00 |  | < 5.00
O=C1OC(CO)CN1c1ncc(OC(F)(F)c2c(Cl)cccc2Cl)cn1 (stereo not drawn) |  | < 5.00 |  | < 5.00
NC(=O)C1CN(c2ncc(OCc3c(Cl)cccc3C(F)(F)F)cn2)CCO1 (stereo not drawn) | A′ (A′ = ≥10X) | 5.00 to 6.00 | A′ (A′ = ≥10X) | 5.00 to 6.00
NC(=O)N1CCC(c2ncc(OCc3c(Cl)cccc3C(F)(F)F)cn2)CC1 | A′ (A′ = ≥10X) | > 6.00 | A′ (A′ = ≥10X) | > 6.00
O=C1NC2(CC2)C(=O)N1c1ccc(OCc2c(Cl)cccc2C(F)(F)F)cc1 | A′ (A′ = ≥10X) | > 6.00 | A′ (A′ = ≥10X) | 5.00 to 6.00
NC(=O)N1CC2(C1)CN(c1ncc(OCc3c(Cl)cccc3C(F)(F)F)cn1)C2 | A′ (A′ = ≥10X) | 5.00 to 6.00 | B′ (B′ = ≥5X to <10X) | 5.00 to 6.00
FC(F)(F)c1cccc(Cl)c1COc1cnc(N2CCCC3(CCNC3)C2)nc1 (stereo not drawn) | B′ (B′ = ≥5X to <10X) | 5.00 to 6.00 | B′ (B′ = ≥5X to <10X) | 5.00 to 6.00
Cc1cccc(OC(F)F)c1COc1ccc(-n2cnc(CO)n2)cc1 | B′ (B′ = ≥5X to <10X) | 5.00 to 6.00 | B′ (B′ = ≥5X to <10X) | 5.00 to 6.00
OCc1ccn(-c2ncc(OC(F)(F)c3c(Cl)cccc3Cl)cn2)n1 |  | < 5.00 |  | < 5.00
O=CN[C@@H](CO)C(=O)Nc1ccc(OCc2c(Cl)cccc2Cl)cn1 |  | < 5.00 | B′ (B′ = ≥5X to <10X) | < 5.00
NC1(CO)CCN(c2ncc(OCc3c(Cl)cccc3C(F)(F)F)cn2)C1 (stereo not drawn) | A′ (A′ = ≥10X) | < 5.00 | B′ (B′ = ≥5X to <10X) | 5.00 to 6.00
O=C1O[C@@H](CO)CN1c1ccc(OCc2c(Cl)cccc2C(F)(F)F)cn1 | A′ (A′ = ≥10X) | 5.00 to 6.00 | A′ (A′ = ≥10X) | 5.00 to 6.00
O=C1O[C@H](CO)CN1c1ccc(OCc2c(Cl)cccc2C(F)(F)F)cn1 | A′ (A′ = ≥10X) | 5.00 to 6.00 | A′ (A′ = ≥10X) | 5.00 to 6.00

SMILES | CFTR G542X ACTIVITY Fold 10 μM G-418 [1] | pEC50 [1] | CFTR R1162X ACTIVITY Fold 10 μM G-418 [2] | pEC50 [2]
C[C@H]1CO[C@@H](CO)CN1c1ncc(OCc2c(Cl)cccc2Cl)cn1 (racemic) | A′ (A′ = ≥10X) | > 6.00 | A′ (A′ = ≥10X) | > 6.00
OC[C@H]1CN(c2ncc(OCc3c(Cl)cccc3Cl)cn2)C[C@@H](C(F)(F)F)O1 (racemic) | A′ (A′ = ≥10X) | 5.00 to 6.00 | A′ (A′ = ≥10X) | 5.00 to 6.00
C[C@H]1CO[C@H](CO)CN1c1ncc(OCc2c(Cl)cccc2Cl)cn1 (racemic) | A′ (A′ = ≥10X) | 5.00 to 6.00 | A′ (A′ = ≥10X) | 5.00 to 6.00
OC[C@@H]1CN(c2ncc(OCc3c(Cl)cccc3Cl)cn2)C[C@@H](C(F)(F)F)O1 (racemic) | A′ (A′ = ≥10X) | > 6.00 | B′ (B′ = ≥5X to <10X) | 5.00 to 6.00
CC(=O)N1CCN(c2ncc(OCc3c(C)cccc3C(F)(F)F)cn2)CC1CN (racemic) | C′ (C′ = <5X) | 5.00 to 6.00 | C′ (C′ = <5X) | 5.00 to 6.00
C[C@@H](O)[C@@H]1CN(c2ncc(OCc3c(Cl)cccc3Cl)cn2)CCO1 (racemic) | A′ (A′ = ≥10X) | 5.00 to 6.00 | A′ (A′ = ≥10X) | < 5.00
OC[C@@H]1CN(c2ncc(OCc3c(Cl)cccc3Cl)cn2)CC[C@@H]1O (racemic) | A′ (A′ = ≥10X) | > 6.00 | A′ (A′ = ≥10X) | 5.00 to 6.00
O=C(O)c1ncn(-c2ccc(OCc3c(Cl)cccc3C(F)(F)F)cn2)n1 [1-(5-{[2-chloro-6-(trifluoromethyl)phenyl]methoxy]pyridin-2-] | C′ (C′ = <5X) | 5.00 to 6.00 |  | < 5.00
O=C(O)C1CCCN(c2ncc(OCc3c(Cl)cccc3C(F)(F)F)cn2)C1 (stereo not drawn) [1-(5-{[2-chloro-6-(trifluoromethyl)phenyl]methoxy]pyrimidin-] |  | 5.00 to 6.00 |  | < 5.00
O=C(O)C1CCN(c2ncc(OCc3c(Cl)cccc3C(F)(F)F)cn2)CC1 [1-(5-{[2-chloro-6-(trifluoromethyl)phenyl]methoxy}pyrimidin-] | C′ (C′ = <5X) | 5.00 to 6.00 | C′ (C′ = <5X) | 5.00 to 6.00
CC(O)C1CCN(c2ncc(OCc3c(Cl)cccc3Cl)cn2)C1 (stereo not drawn) [1-[1-[5-[(2,6-dichlorophenyl)methoxy]pyrimidin-2-yl]pyrrolidin-3-yl]ethanol] | A′ (A′ = ≥10X) | 5.00 to 6.00 | A′ (A′ = ≥10X) | 5.00 to 6.00
CC(=O)N1CCN(c2ncc(OCc3c(Cl)cccc3Cl)cn2)CC1 [1-[4-[5-[(2,6-dichlorophenyl)methoxy]pyrimidin-2-yl]piperazin-1-yl]ethanone] | A′ (A′ = ≥10X) | 5.00 to 6.00 | A′ (A′ = ≥10X) | 5.00 to 6.00
Clc1cccc(Cl)c1COc1ccc(-n2cncn2)cc1 [1-[4-[(2,6-dichlorophenyl)methoxy]phenyl]-1,2,4-triazole] | A′ (A′ = ≥10X) | 5.00 to 6.00 | A′ (A′ = ≥10X) | 5.00 to 6.00
COCC1CN(c2ccc(OCc3c(Cl)cccc3Cl)cc2)C(=O)N1 (stereo not drawn) [1-[4-[(2,6-dichlorophenyl)methoxy]phenyl]-4-(methoxymethyl)imidazolidin-2-one] | B′ (B′ = ≥5X to <10X) | 5.00 to 6.00 | B′ (B′ = ≥5X to <10X) | 5.00 to 6.00
Clc1cccc(Cl)c1COc1ccc(-n2ccnc2)cc1 [1-[4-[(2,6-dichlorophenyl)methoxy]phenyl]imidazole] | B′ (B′ = ≥5X to <10X) | 5.00 to 6.00 | A′ (A′ = ≥10X) | < 5.00
O=C1CCC(=O)N1c1ccc(OCc2c(Cl)cccc2Cl)cc1 [1-[4-[(2,6-dichlorophenyl)methoxy]phenyl]pyrrolidine-2,5-dione] | A′ (A′ = ≥10X) | 5.00 to 6.00 | B′ (B′ = ≥5X to <10X) | 5.00 to 6.00
OCC(O)c1ccc(OCc2c(Cl)cccc2Cl)cn1 (stereo not drawn) [1-[5-[(2,6-dichlorophenyl)methoxy]-2-pyridyl]ethane-1,2-diol] | A′ (A′ = ≥10X) | < 5.00 | B′ (B′ = ≥5X to <10X) | 5.00 to 6.00

From patent US20250228865A1, “COMPOUNDS FOR ENHANCING READ THROUGH OF GENES CONTAINING PREMATURE TERMINATION CODONS AND METHODS FOR MAKING AND USING THE SAME” (Sanofi US Services Inc., priority 2022, published 2025)
